# Test results from paper PMC10674894 (Viruses, 2023).
# “And” between values parts separate entries of the source, which are not always exact repeats. Equal values may be shown once. Read-outs that look alike come from different tables or passages of the source.
# Key:
# CHIKV-E2 protein = assay: Western blot of CHIKV E2 protein; type: cell-based, chikungunya virus; settings: 18 hpi, compared to virus control
# CHIKV [1] = assay: Cytopathic effect inhibition and cell viability dose-response assay; type: cell-based, chikungunya virus
# RRV T48 strain [2] = assay: Immunofluorescence and MTT cell viability assays, RRV; type: cell-based, Ross River virus; settings: 300 µM, 36 hpi
# CHIKV [3] = assay: Mode of inhibition (time of addition), MTT cell viability; type: cell-based, chikungunya virus; settings: for viability at 300 µM: Chikungunya virus
# CHIKV [4] = assay: Immunofluorescence assay, CHIKV E2 mAb; type: cell-based, chikungunya virus
# RRV T48 strain [5] = assay: Plaque assay, RRV; type: cell-based, Ross River virus; settings: 300 µM; for RRV titer: MOI 0.1; for percent reduction in virus titer: with respect to virus control
# CHIKV [6] = assay: Plaque assay, CHIKV; type: cell-based, chikungunya virus; settings: 300 μM, MOI 0.1
# CHIKV DRDE-07 = assay: In vitro screening against CHIKV (CPE inhibition and MTT cell viability); type: cell-based, chikungunya virus; settings: Table S1, CHIKV-infected Vero cells; for CPE: arbitrary score of cytopathic effect at >48 hpi
# [7] = Cytotoxicity MTT assay in Vero cells (MNTD, CC50); type: cell-based, African green monkey; settings: African green monkey
# Vero cells = assay: Cytotoxicity MTT assay in Vero cells (MNTD, CC50); type: cell-based, African green monkey
smiles,measurement,setting,value
"Nc1nc(N)c2cc(F)ccc2n1 [DCR 137, 6-fluoro-quinazoline-2,4-diamine]",CHIKV-E2 protein expression,CHIKV-E2 protein,significant decrease
same,cytopathic effect (microscopy),"CHIKV [1]; 150 and 300 µM, CHIKV-infected Vero cells",delayed and dose-dependent CPE
same,EC50,"CHIKV [1]; Chikungunya virus, Vero, CHIKV replication in Vero cells, post-treatment, MTT at 48 hpi",~37 µM
same,green fluorescence (RRV immunofluorescence),RRV T48 strain [2],barely detectable
same,viability at 300 µM,"CHIKV [3]; 2 h, read-out: cell viability, post-treatment",> 95%
same,viability at 300 µM,"CHIKV [3]; read-out: cell viability, pre-treatment",15%
same,viability at 300 µM,"CHIKV [3]; read-out: cell viability, simultaneous treatment",29%
same,effect of pre-treatment or simultaneous treatment on viral infection,"CHIKV [3]; pre-treatment 24 h or simultaneous 1 h, CHIKV MOI 1",no inhibitory effects
same,viral fluorescence (immunofluorescence),"CHIKV [4]; 300 µM, CHIKV MOI 0.1, 36 hpi",complete abrogation of viral fluorescence
same,protection compared to ribavirin,"CHIKV [4]; CHIKV, immunofluorescence, ribavirin positive control",higher protection
same,RRV titer,"RRV T48 strain [5]; 24 hpi, untreated 3.0 × 10^6",1.1 × 10^2 PFU/mL
same,percent reduction in virus titer,RRV T48 strain [5]; 24 hpi,99.99%
same,RRV titer,"RRV T48 strain [5]; 48 hpi, untreated 1.2 × 10^8",1.7 × 10^5 PFU/mL
same,percent reduction in virus titer,RRV T48 strain [5]; 48 hpi,99.85%
same,CHIKV titer,"CHIKV [6]; 24 hpi, virus control 2.8 × 10^6",1.8 × 10^2 PFU/mL
same,CHIKV titer,"CHIKV [6]; 48 hpi, virus control 9.1 × 10^8",1.9 × 10^5 PFU/mL
same,CPE,CHIKV DRDE-07,+ (<30%)
same,CC50 at 72 h,"[7]; Vero cells, MTT",> 1100 µM
same,viability at 72 h,"[7]; uninfected Vero cells at MNTD, read-out: cell viability at MNTD",~90%
same,MNTD,"Vero cells; Table S1, Vero cells",300 µM
same,MNTD value,Vero cells; Vero cells,> 300 μM and ~ 312 μM
same,cytotoxicity (cell morphology),"Vero cells; Vero cells, 312.5 µM, 48 hpi, microscopy",No significant cytotoxicity
same,MNTD,"Vero cells; maximum nontoxic dose in Vero cells, MTT",300 µM
"N#Cc1ccc(N2CCN(CCO)CC2)cc1N1CCN(CCO)CC1 [DCR150, 2,4-Bis-[4-(2-hydroxy-ethyl)-piperazin-1-yl]-benzonitrile]",% Cell viability,"CHIKV DRDE-07; 72 hpi, MTT assay",18.09%
same,CPE,CHIKV DRDE-07,++++ (>60% (++++))
same,MNTD,"Vero cells; Table S1, Vero cells",62.5 µM
